{"source": "paper PMC4078388", "about": "(EJNMMI Research, 2014)", "origin": "cited, not measured here", "system": "INS-1 tumour", "conditions": "Balb/c nude mice, 1 h after injection", "from_the_text": "One additional challenge when imaging β-cells is the limited amount of overall GLP-1 receptors available which requires the administration of low amounts of peptide with a high specific activity in order to avoid receptor blocking [[13]]. One potential way to further increase the specific activity and therefore reduce the amount of tracer necessary to obtain a clear image is to attach several chelators to the peptide allowing more radioactivity per molecule.", "data": [{"substance": "[Lys^40(^68Ga-DOTA)]exendin-3", "values": [{"measurement": "uptake in INS-1 tumour", "result": "8.9 ± 3.1", "unit": "%iA/g"}, {"measurement": "uptake in the pancreas", "result": "6.7 ± 1.8", "unit": "%iA/g"}]}]}
